This is an account of results in patent publication US10864211B2, “Hydroxy isoxazole compounds useful as GPR120 agonists” (Merck Sharp & Dohme Corp., priority 2016, dated 2020).

Where a name gives a salt, the structure may show the parent alone.

This experiment has as its target T1, human GPR120 (Homo sapiens, UniProt Q5NUL3).
T1 construct: expressed in transfected cells; host or cells: CHO-K1
T1 sequence (Q5NUL3 1-361): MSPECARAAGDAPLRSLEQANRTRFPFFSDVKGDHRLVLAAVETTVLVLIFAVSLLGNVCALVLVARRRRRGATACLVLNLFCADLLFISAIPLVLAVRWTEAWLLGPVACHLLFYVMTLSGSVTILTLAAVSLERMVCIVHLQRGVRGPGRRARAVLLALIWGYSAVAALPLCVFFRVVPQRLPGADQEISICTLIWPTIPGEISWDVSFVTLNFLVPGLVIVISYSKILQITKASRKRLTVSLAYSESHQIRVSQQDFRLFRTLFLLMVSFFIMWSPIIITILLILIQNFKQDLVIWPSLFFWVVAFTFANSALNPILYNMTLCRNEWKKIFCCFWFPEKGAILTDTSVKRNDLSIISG
Kind of experiment: Human GPR120 IP1 assay (inositol phosphate turnover). In kind it is cell-based. Conditions: IP1 accumulation in CHO-K1 cells stably expressing the short form of human GPR120. The text has this: The binding of small molecule agonists to the G-protein-coupled receptor GPR120 activates phospholipase C, and leads to the generation of inositol 1,4,5-trisphosphate (InsP3 or IP3). IP3 is subsequently de-phosphorylated to IP1, which accumulates in cells and is stable in the presence of lithium chloride.
In the present method, agonist-induced activation of the human and rat GPR120 receptor was monitored by measuring the accumulation of IP1 in CHO-K1 cells that were stably expressing the short form of human GPR120 (Accession #NM_001195755) or HEK293 cells stably expressing rat GPR120 (Accession #NM_001047088). Following agonist addition, GPR120 activation and subsequent accumulation of IP1 was measured using a homogeneous Time Resolved Fluorescence-based ELISA commercially available from CisBio (IP-one ELISA Kit). The IP-One ELISA was a competitive immunoassay which uses IP1 labeled with […] and a terbium cryptate-labeled anti-IP1 monoclonal antibody. […] The signal loss was then back calculated to IP1 concentration using an IP1 standard curve. Determination of IP1 concentration was a direct measure of GPR120 activation and was used to determine compound potency (EC50).
Human GPR120 stable cell-lines were generated in CHO cells. The expression plasmids were transfected using lipofectamine (Life Technologies) following manufacturer's instructions. Stable cell-lines were generated following drug selection and single cell cloning. Rat GPR120 stable cell-lines were generated in HEK cells using the Jump-In™ cell engineering platform (Life Technologies) following manufacturer's instructions. Stable cell-lines were generated following drug selection and single cell cloning.
The assay was performed in 384-well format. CHO cells stably expressing human GPR120 were plated at 20,000 cells per well in growth medium (DMEM/F12, 10% fetal calf serum). HEK293 cells stably expressing rat GPR120 were plated at […] per well in growth medium (DMEM, 10% fetal calf serum). Cell plates were then incubated 16 hours at 37 degrees in a 5% CO2 incubator. Measurement of Inositol Phosphate Turnover (IP1) was performed using the CisBio IP-One kit (Part number 62IPAPEB). After the 16 hour incubation, the growth media was removed by centrifugation using the BlueWasher (AusWasher GUI Ver. v1.0.1.8) Protocol #21-“Light Dry” and 10 μl of stimulation buffer (prepared as described in the kit) was added to each well. In a separate plate, compounds were diluted in DMSO (200-fold over the final concentration in the assay well) and 50 nl was acoustically transferred to the appropriate well in the assay cell plate. The plates were then incubated for 60 minutes at 37 degrees in a 5% CO2 incubator. 10 μl of detection buffer (also prepared as described in the IP-One kit) was added to each well and the plates were incubated at room temperature for 60 minutes in the dark. The plates were then read in a Perkin ElmerEnVision or equivalent reader able to measure FRET. Fluorescent ratio of emission at 665 and 620 nm was then converted to the IP1 concentration by back calculating from an IP1 standard curve prepared at the time of the assay. The data was normalized to % activity using a reference compound, and the EC50 values were determined using a standard 4-parameter fit.
As usually defined, the EC50 is the concentration that produces a half-maximal response. Read a low EC50 as a more potent agent. `Oc1cc(-c2cnc(O[C@H]3C[C@@H](c4ccc5c(c4)OCCO5)C3)cn2)on1` [Example 42, ammonium 5-(5-{[cis-3-(2,3-dihydro-1,4-benzodioxin-6-yl)cyclobutyl]oxy}pyrazin-2-yl)isoxazol-3-olate] returned an EC50 of 85 nM. This counts as double-digit nanomolar.
For `Oc1cc(-c2cnc(O[C@H]3C[C@@H](c4cccc5ccccc54)C3)cn2)on1` [Example 43, 5-{5-[(cis-3-naphthalen-1-ylcyclobutyl)oxy]pyrazin-2-yl}isoxazol-3-ol] the value was 130 nM.
For `Cc1cc([C@H]2C[C@@H](Oc3cnc(-c4cc(O)no4)cn3)C2)ccc1OC(F)(F)F` [Example 44, 5-[5-({cis-3-[3-methyl-4-(trifluoromethoxy)phenyl]cyclobutyl}oxy)pyrazin-2-yl]isoxazol-3-ol] the value was 60 nM.
In turn, `Oc1cc(-c2cnc(O[C@H]3C[C@@H](c4ccc(F)c(C(F)F)c4)C3)cn2)on1` [Example 45, 5-[5-({cis-3-[3-(difluoromethyl)-4-fluorophenyl]cyclobutyl}oxy)pyrazin-2-yl]isoxazol-3-ol] registered an EC50 of 24 nM.
With `Cc1ccc([C@H]2C[C@@H](Oc3cnc(-c4cc(O)no4)cn3)C2)c(F)c1` [Example 46, 5-(5-{[cis-3-(2-fluoro-4-methylphenyl)cyclobutyl]oxy}pyrazin-2-yl)isoxazol-3-ol] the figure was 36 nM.
Consider `Cc1ccc([C@H]2C[C@H](Oc3cnc(-c4cc(O)no4)cn3)C2)c(F)c1` [Example 47, 5-(5-{[trans-3-(2-fluoro-4-methylphenyl)cyclobutyl]oxy}pyrazin-2-yl)isoxazol-3-ol], for which a half-maximal response (EC50) required 104 nM.
For `Cc1ccc([C@H]2C[C@@H](Oc3cnc(-c4cc(O)no4)cn3)C2)c(F)c1` [Example 48, 5-(5-{[cis-3-(2-fluoro-4-methylphenyl)cyclobutyl]oxy}pyrazin-2-yl)isoxazol-3-ol], it took 24 nM to reach a half-maximal effect (EC50).
Take `Oc1cc(-c2cnc(O[C@H]3C[C@@H](c4c(F)cc(Cl)cc4F)C3)cn2)on1` [Example 49, ammonium 5-(5-{[cis-3-(4-chloro-2,6-difluorophenyl)-cyclobutyl]oxy}pyrazin-2-yl)isoxazol-3-olate]: the concentration for a half-maximal effect (EC50) came out at 9.7 nM.
Turning to `Oc1cc(-c2cnc(O[C@H]3C[C@@H](c4c(F)cc(OC(F)F)cc4F)C3)cn2)on1` [Example 50, ammonium 5-[5-({cis-3-[4-(difluoromethoxy)-2,6-difluorophenyl]cyclobutyl}oxy)pyrazin-2-yl]isoxazol-3-olate], it took 23 nM to reach a half-maximal effect (EC50). This EC50 is about 2.4-fold higher than that of the compound before.
With `Cc1cc(F)c([C@H]2C[C@@H](Oc3cnc(-c4cc(O)no4)cn3)C2)c(F)c1` [Example 51, ammonium 5-(5-{[cis-3-(2,6-difluoro-4-methyl-phenyl)-cyclobutyl]oxy}pyrazin-2-yl)isoxazol-3-olate], the EC50 was 16 nM.
Take `Oc1cc(-c2cnc(O[C@H]3C[C@@H](c4cc(F)c(Cl)c(F)c4)C3)cn2)on1` [Example 52, 5-(5-{[cis-3-(4-chloro-3,5-di-fluorophenyl)cyclobutyl]oxy}pyrazin-2-yl)isoxazol-3-ol]: the response was half-maximal at 28 nM (EC50).
The compound `Oc1cc(-c2cnc(O[C@H]3C[C@@H](c4cc(F)c(OC(F)F)c(F)c4)C3)cn2)on1` [Example 53, ammonium 5-[5-({cis-3-[4-(difluoromethoxy)-3,5-di-fluorophenyl]cyclobutyl}oxy)pyrazin-2-yl]isoxazol-3-olate] returned an EC50 of 14 nM. Compared with the last compound, the EC50 is about 2-fold lower.
The compound `COc1cc(OC)cc([C@H]2C[C@@H](Oc3cnc(-c4cc(O)no4)cn3)C2)c1` [Example 54, ammonium 5-(5-{[cis-3-(3,5-dimethoxyphenyl)cyclobutyl]oxy}pyrazin-2-yl)isoxazol-3-olate] had a concentration for a half-maximal effect (EC50) of 99 nM.
With `Oc1cc(-c2cnc(O[C@H]3C[C@@H](c4ccc(C(F)(F)F)cc4)C3)cn2)on1` [Example 55, 5-[5-({cis-3-[4-(trifluoromethyl)phenyl]cyclobutyl}oxy)pyrazin-2-yl]isoxazol-3-ol] the figure was 11 nM; with `Oc1cc(-c2cnc(O[C@H]3C[C@@H](c4ccc(OC(F)(F)F)cc4)C3)cn2)on1` [Example 56, 5-[5-({cis-3-[4-(trifluoromethoxy)phenyl]cyclobutyl}oxy)pyrazin-2-yl]isoxazol-3-ol], 49 nM.
`Cc1ccc([C@H]2C[C@@H](Oc3cnc(-c4cc(O)no4)cn3)C2)cc1F` [Example 57, 5-(5-{[cis-3-(3-fluoro-4-methylphenyl)cyclobutyl]oxy}pyrazin-2-yl)isoxazol-3-ol] had an EC50 of 23 nM.
`Oc1cc(-c2cnc(O[C@H]3C[C@@H](c4ccc(OC(F)F)cc4)C3)cn2)on1` [Example 58, 5-[5-({cis-3-[4-(difluoromethoxy)phenyl]cyclobutyl}oxy)pyrazin-2-yl]isoxazol-3-ol] registered a concentration giving a half-maximal response (EC50) of 104 nM.
For `Oc1cc(-c2cnc(O[C@H]3C[C@@H](c4ccc(C(F)F)cc4)C3)cn2)on1` [Example 59, 5-[5-({cis-3-[4-(difluoromethyl)phenyl]cyclobutyl}oxy)pyrazin-2-yl]isoxazol-3-ol] the value was 8 nM.
For the compound `Oc1cc(-c2cnc(O[C@H]3C[C@H](c4ccc(OC5CC5)cc4)C3)cn2)on1` [Example 60, 5-[5-({trans-3-[4-(cyclopropyloxyl)phenyl]cyclobutyl}oxy)pyrazin-2-yl]isoxazol-3-ol], the half-maximal effective concentration (EC50) was found to be 13 nM.
As for `Oc1cc(-c2ccc(O[C@H]3C[C@@H](OCc4ccc(F)c(F)c4)C3)nc2)on1` [Example 62, 2-({cis-3-[(3,4-difluorobenzyl)oxy]cyclobutyl}oxy)-5-(3-hydroxy-isoxazol-5-yl)pyridinium trifluoroacetate], it took 40 nM to reach a half-maximal effect (EC50).
Consider `Oc1cc(-c2cnc(O[C@H]3C[C@@H](Oc4ccc(F)c(Cl)c4)C3)cn2)on1` [Example 63, ammonium 5-(5-{[cis-3-(3-chloro-4-fluorophenoxy)cyclobutyl]-oxy}pyrazin-2-yl)isoxazol-3-olate], for which the EC50 came to 53 nM.
As for `Oc1cc(-c2ccc(OCC3CC(Oc4ccccc4)C3)nc2)on1` (stereo not drawn) [Example 64, ammonium 5-{6-[(3-phenoxycyclobutyl)methoxy]pyridin-3-yl}isoxazol-3-olate], the EC50 came to 1990 nM.
With `Oc1cc(-c2cnc(O[C@H]3C[C@@H](COc4ccc(F)cc4)C3)cn2)on1` [Example 65, sodium 5-[5-({cis-3-[(4-fluorophenoxy)methyl]-cyclobutyl}oxy)pyrazin-2-yl]isoxazol-3-olate] the figure was 5.8 nM; with `Oc1cc(-c2cnc(O[C@H]3C[C@@H](Oc4cccc(C(F)(F)F)c4)C3)cn2)on1` [Example 66, ammonium 5-[5-({cis-3-[3-(trifluoromethyl)phenoxy]cyclobutyl}oxy)pyrazin-2-yl]isoxazol-3-olate], 37 nM.
For `Oc1cc(-c2cnc(O[C@H]3C[C@@H](Oc4ccc(C(F)(F)F)cc4)C3)cn2)on1` [Example 67, ammonium 5-[5-({cis-3-[4-(trifluoromethyl)phenoxy]cyclobutyl}oxy)pyrazin-2-yl]isoxazol-3-olate] the value was 47 nM; for `Oc1cc(-c2cnc(O[C@H]3C[C@@H](Oc4cccc(OC(F)(F)F)c4)C3)cn2)on1` [Example 68, 5-[5-({cis-3-[3-(trifluoromethoxy)phenoxy]cyclobutyl}oxy)pyrazin-2-yl]isoxazol-3-ol], 52 nM.
For `Oc1cc(-c2cnc(O[C@H]3C[C@@H](Oc4csc(C(F)(F)F)c4)C3)cn2)on1` [Example 69, 5-{5-[(cis-3-{[5-(trifluoromethyl)thiophen-3-yl]oxy}cyclobutyl)oxy]pyrazin-2-yl}isoxazol-3-ol] the value was 25 nM.
